In patent US12171779B2, “Regulated drug delivery via controlled degradable chondroitin sulfate particles” (UNIVERSITY OF SOUTH FLORIDA, priority 2021, dated 2024):

Columns and labels:
[1] = Total phenolic content by Folin-Ciocalteau (FC) method; details: 1000 μg/mL concentration
Protocol: Total phenolic content of the particles was evaluated by Folin-Ciocalteau (FC) method. Briefly, 0.1 mL of 1 mg/mL microgel suspensions were reacted with 1.25 mL of 0.2 N solution of FC phenol reagent for 4 min. Next, 1 mL of 0.7 M sodium bicarbonate solution was added to this mixture and kept in the dark for 2 hours. Then, the total phenol content of the microgels was measured by using a UV/Vis spectrophotometer (T80+PG Instrument) at 760 nm. The antioxidant activity of the microgels was expressed as μg/mL gallic acid equivalent. The analysis was repeated three times, and the values are reported as the average values with standard deviations.

[2] = cited from earlier work

## O=C(/C=C/c1ccc(O)c(O)c1)O[C@H](Cc1ccc(O)c(O)c1)C(=O)O [RA, Rosmarinic acid]
[1]
  Total phenol content (TPC), gallic acid equivalent: 556±35 μg/mL gallic acid equivalent
[2]
  IC50 (50% inhibition of DPPH radical): 1.3 ± 0.1 µg/mL
